Data as given in patent publication US12098116B2, “Crystalline prostacyclin (IP) receptor agonist and uses thereof” (United Therapeutics Corporation, priority 2022, dated 2024).
In brackets after ≈: the same amount, converted by molar mass. Like-named read-outs stand apart in the source and are kept apart here.

Columns and labels:
[1] = healthy volunteer population, cited from earlier work
pulmonary artery = details: head-to-head in vitro; cited from earlier work
IP receptor = IP receptor (Homo sapiens, UniProt P43119); details: head-to-head in vitro; cited from earlier work
[2] = Solvent solubility study of ralinepag; type: physicochemical; details: thermodynamic from solid
Protocol: To prepare amorphous material for solubility testing, 330 mg of ralinepag was dissolved in 33 mL tert-butanol (with gentle heating applied via a heatgun) before being split evenly into 33 vials (˜10 mg of ralinepag per sample). […] One vial of solid was analyzed by XRPD to confirm that ralinepag had been rendered amorphous. However, as in Example 2g, a poorly crystalline Pattern 2 was observed. 32 solvents and solvent systems were added to 32×10 mg of lyophilized ralinepag in 50 μL aliquots for the first 300 μL or until complete dissolution was noted. If complete dissolution was not observed, 100 μL aliquots were added thereafter up to 1 mL total solvent. Between each addition, the mixture was manually shaken for a few seconds and if complete dissolution was not apparent, the mixture was heated to about 40° C. and checked again. Where complete dissolution occurred, the solvent was allowed to evaporate at ambient temperature. Where complete dissolution was not observed, the solids were isolated via centrifuge filtration. Recovered solids were analyzed by XRPD.

[3] = test system: human pulmonary artery smooth muscle cell (PASMC); details: head-to-head in vitro; cited from earlier work
[4] = cited from earlier work
[5] = Solid form conversion on drying or heating, followed by XRPD; type: physicochemical
[6] = cited from earlier work; remark: listed apart in the source
[7] = Dynamic Vapour Sorption (DVS); type: physicochemical
Protocol: Approximately, 10 mg of sample was placed into a mesh vapor sorption balance pan and loaded into a DVS-1/DVS Intrinsic/DVS Advantage dynamic vapor sorption balance by Surface Measurement Systems. The sample was subjected to a ramping profile from 40-90% relative humidity (RH) at 10% increments, maintaining the sample at each step until a stable weight had been achieved (dm/dt 0.004%, minimum step length 30 min, maximum step length 500 min) at 25° C. After completion of the sorption cycle, the sample was dried using the same procedure to 0% RH and then a second sorption cycle back to 40% RH. Two cycles were performed. The weight change during the sorption/desorption cycles were plotted, allowing for the hygroscopic nature of the sample to be determined.

Sequence of IP receptor (P43119 whole entry): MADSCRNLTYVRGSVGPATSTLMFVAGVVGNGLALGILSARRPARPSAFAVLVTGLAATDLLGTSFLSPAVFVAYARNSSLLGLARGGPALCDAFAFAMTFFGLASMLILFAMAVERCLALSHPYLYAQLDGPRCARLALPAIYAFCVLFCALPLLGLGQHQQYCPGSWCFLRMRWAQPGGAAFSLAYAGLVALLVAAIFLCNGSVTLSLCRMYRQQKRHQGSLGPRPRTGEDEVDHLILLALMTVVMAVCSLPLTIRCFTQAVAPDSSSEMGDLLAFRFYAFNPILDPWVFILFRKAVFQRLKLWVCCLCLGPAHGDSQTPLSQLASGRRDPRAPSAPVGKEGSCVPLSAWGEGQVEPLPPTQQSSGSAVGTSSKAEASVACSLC

## O=C(O)COC[C@H]1CC[C@H](COC(=O)N(c2ccccc2)c2ccc(Cl)cc2)CC1 [ralinepag, 2-([(1r,4r)-4-(((4-chlorophenyl)(phenyl)carbamoyloxy)methyl)-cyclohexyl]methoxy)acetic acid]
[1]; compared with selexipag
  Variability in plasma concentrations between doses (peak:trough ratio): less variability
[1]; single- and multiple-dose studies
  t1/2 compared with selexipag (and its active metabolite MRE-269): longer t1/2 than selexipag
Pulmonary artery
  Pulmonary artery vasodilation compared with selexipag: improved
IP receptor
  Increase of cellular cAMP levels compared with selexipag: more potent and efficacious than selexipag
[2]; aqueous with cosolvent or surfactant or cyclodextrin, solvent ethanol/water (48:52% v/v), read-out: Estimated Solubility
  solubility: < 10 mg/mL
[2]; organic solvent or mixture, in 29 of the 32 solvent systems, poorly crystalline ralinepag, read-out: Solubility, summary of the screen
  solubility: ≥ 10 mg/mL
[2]; organic solvent or mixture, solvent 1,1-dimethoxymethane, heated to 40° C., lyophilized poorly crystalline material, read-out: Estimated Solubility
  solubility: 50 mg/mL (≈ 116 mM)
[2]; organic solvent or mixture, solvent 1,2-dichloroethene, heated to 40° C., read-out: Estimated Solubility
  solubility: 200 mg/mL (≈ 463 mM)
[2]; organic solvent or mixture, solvent 1,4-dioxane, heated to 40° C., read-out: Estimated Solubility
  solubility: 200 mg/mL (≈ 463 mM)
[2]; organic solvent or mixture, solvent 1-butanol, heated to 40° C., read-out: Estimated Solubility
  solubility: 50 mg/mL (≈ 116 mM)
[2]; organic solvent or mixture, solvent 1-propanol, heated to 40° C., read-out: Estimated Solubility
  solubility: 50 mg/mL (≈ 116 mM)
[2]; organic solvent or mixture, solvent 2-ethoxyethanol, heated to 40° C., read-out: Estimated Solubility
  solubility: 200 mg/mL (≈ 463 mM)
[2]; organic solvent or mixture, solvent 2-methyl-1-propanol, heated to 40° C., read-out: Estimated Solubility
  solubility: 50 mg/mL (≈ 116 mM)
[2]; organic solvent or mixture, solvent 2-methyltetrahydrofuran, read-out: Estimated Solubility
  solubility: 200 mg/mL (≈ 463 mM)
[2]; organic solvent or mixture, solvent 2-propanol, heated to 40° C., read-out: Estimated Solubility
  solubility: 50 mg/mL (≈ 116 mM)
[2]; organic solvent or mixture, solvent N,N-dimethylacetamide, read-out: Estimated Solubility
  solubility: 200 mg/mL (≈ 463 mM)
[2]; organic solvent or mixture, solvent N,N-dimethylformamide, read-out: Estimated Solubility
  solubility: 200 mg/mL (≈ 463 mM)
[2]; organic solvent or mixture, solvent N-methyl-2-pyrrolidone, read-out: Estimated Solubility
  solubility: 200 mg/mL (≈ 463 mM)
[2]; organic solvent or mixture, solvent acetone, read-out: Estimated Solubility
  solubility: 200 mg/mL (≈ 463 mM)
[2]; organic solvent or mixture, solvent acetonitrile, heated to 40° C., read-out: Estimated Solubility
  solubility: 40 mg/mL (≈ 92.6 mM)
[2]; organic solvent or mixture, solvent anisole, read-out: Estimated Solubility
  solubility: 200 mg/mL (≈ 463 mM)
[2]; organic solvent or mixture, solvent benzyl alcohol, read-out: Estimated Solubility
  solubility: 200 mg/mL (≈ 463 mM)
[2]; organic solvent or mixture, solvent butyl acetate, heated to 40° C., read-out: Estimated Solubility
  solubility: 50 mg/mL (≈ 116 mM)
[2]; organic solvent or mixture, solvent dimethylsulfoxide, heated to 40° C., read-out: Estimated Solubility
  solubility: 200 mg/mL (≈ 463 mM)
[2]; organic solvent or mixture, solvent ethanol/water (93:7% v/v), heated to 40° C., read-out: Estimated Solubility
  solubility: 100 mg/mL (≈ 232 mM)
[2]; organic solvent or mixture, solvent ethanol/water (98.5:1.5% v/v), read-out: Estimated Solubility
  solubility: 100 mg/mL (≈ 232 mM)
[2]; organic solvent or mixture, solvent ethanol, heated to 40° C., read-out: Estimated Solubility
  solubility: 100 mg/mL (≈ 232 mM)
[2]; organic solvent or mixture, solvent ethyl acetate, heated to 40° C., read-out: Estimated Solubility
  solubility: 100 mg/mL (≈ 232 mM)
[2]; organic solvent or mixture, solvent heptane, read-out: Estimated Solubility
  solubility: < 10 mg/mL
[2]; organic solvent or mixture, solvent isopropyl acetate, heated to 40° C., read-out: Estimated Solubility
  solubility: 66.7 mg/mL (≈ 154 mM)
[2]; organic solvent or mixture, solvent methanol, heated to 40° C., read-out: Estimated Solubility
  solubility: 200 mg/mL (≈ 463 mM)
[2]; organic solvent or mixture, solvent methylethyl ketone, heated to 40° C., read-out: Estimated Solubility
  solubility: 200 mg/mL (≈ 463 mM)
[2]; organic solvent or mixture, solvent methylisobutyl ketone, heated to 40° C., read-out: Estimated Solubility
  solubility: 100 mg/mL (≈ 232 mM)
[2]; organic solvent or mixture, solvent tert-butylmethyl ether, heated to 40° C., read-out: Estimated Solubility
  solubility: 25 mg/mL (≈ 57.9 mM)
[2]; organic solvent or mixture, solvent tetrahydrofuran, heated to 40° C., read-out: Estimated Solubility
  solubility: 200 mg/mL (≈ 463 mM)
[2]; organic solvent or mixture, solvent toluene, heated to 40° C., read-out: Estimated Solubility
  solubility: 14.3 mg/mL (≈ 33.1 mM)
[2]; solvent water, read-out: Estimated Solubility
  solubility: < 10 mg/mL
[3]
  Inhibition of human PASMC proliferation compared with selexipag: better inhibition

## CC(C)N(CCCCOCC(=O)NS(C)(=O)=O)c1cnc(-c2ccccc2)c(-c2ccccc2)n1 [Selexipag]
[4]; after 17 weeks of treatment
  Effect on PVR: reduce PVR
[4]; in vivo
  Reduction in a composite morbidity and mortality endpoint: 40%

## O=C(O)COC[C@H]1CC[C@H](COC(=O)N(c2ccccc2)c2ccc(Cl)cc2)CC1 [Pattern 2]
[5]; dried under vacuum at 40° C. for approximately 21 h
  Solid form after drying (XRPD): retained
[5]; on heating
  Solid form conversion on heating: converts to Form 1

## CCCCC[C@H](O)/C=C/[C@@H]1[C@H]2C/C(=C/CCCC(=O)O)O[C@H]2C[C@H]1O [epoprostenol]
[6]
  Stability at room temperature: unstable at room temperature

## O=C(O)COC[C@H]1CC[C@H](COC(=O)N(c2ccccc2)c2ccc(Cl)cc2)CC1 [Pattern 4]
[5]; made from DMA/water
  Solid form conversion upon drying: converts to a predominantly amorphous form with some Form 1 peaks present
[5]; made from NMP/water, upon drying (even with air drying)
  Solid form conversion upon drying: converts to Form 1

## O=C(O)COC[C@H]1CC[C@H](COC(=O)N(c2ccccc2)c2ccc(Cl)cc2)CC1 [Form 1]
[7]; DVS, 25° C.
  Hygroscopic nature: non-hygroscopic
[7]; after DVS between 0% and 90% RH
  XRPD of the solid after DVS analysis: unchanged
[7]; between 0% and 90% RH, 25° C.
  Reversible water uptake: 0.1 % (w/w)
